How the values were obtained:
[1] = tested on: chicken embryo; experiment: Ex ovo chorioallantoic membrane (CAM) assay
Protocol: Each chicken embryo was exposed to the IC50 of JHOR11 and 0.1% (v/v) DMSO as vector control and the number of vessels in each treated region was counted at 0 h, and after 24 h and 48 h incubation at 37 °C, as previously described [39].
The CAM assay was performed as previously described [18, 39, 43]. Fertilized eggs with 48 h incubation were opened and stabilized for 24 h in white weighing boats. Two silicone rings were positioned in each embryo and 40 mL IC50 JHOR11 in phosphate-buffered saline (PBS) or 0.1% (v/v) DMSO in PBS, as vector control, were placed in each o-ring. The region delimited by each o-ring was photographed at 0 h, 24 h, 48 h with a digital USB microscope camera (Opti-Tekscope OT-V1). The newly formed veins were counted using ImageJ as previously described [37], and values were presented after normalization with the values obtained for control sample.

[2] = Stability in DMSO-d6-D2O solution by 1H NMR; format: physicochemical; settings: DMSO-d6-D2O 3:7 (v/v), 110 mM chloride, 48 h
Protocol: To evaluate the stability of complexes in a cell culture medium, powdered complexes were first solubilized in DMSO and then immediately in DMEM, in order to guarantee that no more than 0.1% (v/v) DMSO was present in the medium. […] In addition, the stability of the complexes in solution was investigated by ^1H NMR spectroscopy. The ruthenium complexes were dissolved in DMSO-d6-D2O, in a 3:7 ratio (v/v) with a 110 mM chloride concentration, and the ^1H NMR spectra was recorded immediately and after 48 h. […] This observation is in agreement with the M–Cl aquation processes described for several metallic compounds, such as cisplatin [23]. After 48 h, the ^1H NMR spectrum of JHOR10 was unchanged.
The stability of complexes was evaluated in DMEM (Dulbecco’s modified Eagle’s medium). Powdered complexes JHOR10 and JHOR11 were solubilized in DMSO and then immediately diluted in DMEM without phenol red (Thermo Fisher Scientific, Waltham, MA, USA) to a final concentration of 100 µM, assuring that the final concentration of DMSO was not higher than 0.1% (v/v). The UV-visible spectrum was measured after an incubation at 37 °C for 24 or 48 h (DMEM) in a wavelength range between 260 and 800 nm, using a quartz cuvette with 1 cm path length. A total of 2 mg of each compound was dissolved in DMSOd6-D2O 3:7 (v/v) 110 mM chloride concentration (NaCl), and the ^1H NMR were recorded at 0 h and 48 h on a Bruker Avance III 400 MHz.

[3] = tested on: A2780 cells; experiment: Autophagy assay (flow cytometry); format: cell-based, human; settings: A2780, 48 h, IC50 of JHOR11
Protocol: To understand if the cytotoxic effect of the complex is correlated with autophagy, A2780 cells were exposed for 48 h to the IC50 of complex JHOR11. They were then incubated with an autophagic fluorescent dye (Abcam) that becomes highly fluorescent when incorporated into pre-autophagosomes, autophagosomes or autophagolysosomes. Cells were also incubated with DMSO 0.1% (v/v) for vehicle control, and with 1.5 μM rapamycin and 3.5 μM cisplatin as positive controls.
The fluorescence quantification and percentage of autophagic cells was performed on an Attune acoustic focusing flow cytometer and respective software (Thermo Fisher Scientific).

[4] = tested on: doxorubicin-resistant HCT116 (HCT116-Dox); settings: read-out: Relative IC50, HCT116-Dox; 48 h incubation, MTS
Protocol: (§1) The cytotoxic potential of the complexes was evaluated by assessing their viability using the 3-(4,5-dimethylthiazol-2-yl)-5-(3-carboxymethoxyphenyl)-2-(4-sulfophenyl)-2H tetrazolium, inner salt (MTS) colorimetric assay in three tumor cell lines—ovarian carcinoma, A2780, colorectal carcinoma, HCT116, and colorectal carcinoma resistant to doxorubicin, HCT116-Dox and in normal human primary dermal fibroblasts (Figure 1 and Figure S7).
(§2) Normal dermal human fibroblasts, colorectal carcinoma cell line HCT116 and ovarian carcinoma cell line A2780 were acquired from ATCC (Manassas, VA, USA). HCT116 cell lines resistant to doxorubicin (HCT116-Dox) were derived from the HCT116 cell line, as previously described. Fibroblasts and HCT116 cells were cultured in Dulbecco’s modified Eagle medium (DMEM, Thermo Fisher Scientific) and A2780 cell line was cultured on Roswell Park Memorial institute 1640 (RPMI-1640, Thermo Fisher Scientific). Both media were supplemented with 10% (v/v) fetal bovine serum (FBS, Thermo Fisher Scientific) and a mixture of 100 U/mL penicillin and […] streptomycin. The supplemented media are referred to from this point on as DMEM or RPMI for simplicity.

[5] = tested on: normal human dermal fibroblasts; settings: read-out: Relative IC50, Fibroblasts; 48 h incubation, MTS
Protocol: as §1, §2

[6] = tested on: A2780 cells; experiment: Production of reactive oxygen species (H2DCF-DA); format: cell-based, human; settings: A2780, 48 h, IC50 of JHOR11
Protocol: Since the cytotoxicity of Ru(II) complexes is commonly accompanied by the induction of reactive oxygen species (ROS), the ROS concentration was quantified in A2780 cells exposed for 48 h to IC50 concentration of JHOR11, using DMSO 0.1% (v/v) as a vehicle control, and 3.5 µM cisplatin and 25 µM hydrogen peroxide (H2O2) as positive controls. The incubation with the dye 2′,7′-dichlorodihydrofluorescein diacetate (H2DCF-DA) that, in the presence of peroxides, emits green fluorescence after oxidation to 2′,7′-dichlorofluorescein (DCF), followed by fluorescence quantification by flow cytometry, allowed us to infer the induction of ROS.
The production of ROS was evaluated using the dye 2′,7′-dichlorodihydrofluorescein diacetate (H2DCF-DA, ThermoFisher Scientific) according to previously described procedures. […] The fluorescence was quantified in an Attune acoustic focusing cytometer and respective software (Thermo Fisher Scientific) and normalized to the fluorescence of vector control sample.

[7] = tested on: A2780 cells; experiment: Senescence assay (beta-galactosidase fluorescence); format: cell-based, human; settings: A2780, 48 h, IC50 of JHOR11, relative to DMSO
Protocol: The senescence of A2780 cells after 48 h incubation with IC50 of JHOR11 was also analyzed to add more insights into the mechanism of action of the complex. Premature cellular senescence is an irreversible state of cell cycle arrest that occurs in response to intrinsic and extrinsic insults to the cell that induce DNA damage, oxidative stress, or nutrient depletion. The percentage of senescent cells was measured using the senescence assay kit (Abcam) that allows the quantification of the senescence-associated expression of beta-galactosidase activity by flow cytometry. […] [36].
The cell senescence analysis was performed using the Senescence assay kit (beta galactosidade fluorescence, Abcam, Cambridge, UK) according to the manufacturer’s instruction with few modifications. Briefly, A2780 cells were seeded in 24 well-plates to a final cell density of 4 × 10^5 cells/well. After 24 h incubation, to assure cell adhesion to the wells, the medium was replaced by fresh media supplemented with 0.1% (v/v) DMSO, for vector control, 3.5 µM cisplatin, 0.1 µM Doxorubicin, or IC50 JHOR11. […] Pelleted cells were washed with wash buffer, resuspended in the same buffer and the percentage of fluorescent cells in each sample was immediately measured in an Attune focusing flow cytometer and respective software (Thermo Fisher Scientific).

For Cc1ccc(C(C)C)cc1.F[P-](F)(F)(F)(F)F.O=C1C(=O)c2cccnc2-c2ncccc21.[Cl][Ru+] [JHOR11], the “newly formed vessels (angiogenesis)” value ([1]; IC50 of JHOR11, 24 h and 48 h, versus DMSO-treated regions) was “no anti- or pro-angiogenic effects”, the “death of chicken embryos” value ([1]; six embryos, 48 h, IC50 of JHOR11) was “did not induce the death” and the “stability in solution by 1H NMR after 48 h” value [2] was “the majority of the complex remained intact”. For the same compound, the “percentage of cells with autophagic events” value [3] was 48.8 ± 7.5%, the IC50 [4] was 6.8 ± 0.3 µM and the IC50 [5] was 44.5 ± 2.2 µM. For the same compound, the “increase in intracellular ROS relative to vector control” value [6] was 1.72 ± 0.4 times and the “percentage of senescent cells” value [7] was “increased percentage of senescent cells”.

From article PMC9656482, “In Vitro and In Vivo Biological Activity of Ruthenium 1,10-Phenanthroline-5,6-dione Arene Complexes” (International Journal of Molecular Sciences, 2022)
